Test results published in the RepoRT retention time repository (doi:10.1021/acs.analchem.1c00972).

Assays:
[1] = RP, Waters ACQUITY UPLC BEH C18, 100 × 1 mm, 1.7 µm, 50 °C, 0.3 mL/min, estimated dead time 0.17 min; A: water + 10 mM ammonium bicarbonate; B: 10% water + 90% methanol + 10 mM ammonium bicarbonate; gradient (min/%B) 0/0 15/100 21/100 22/0 30/0; conditions: stereoisomer not certain
[2] = RP, Waters ACQUITY UPLC BEH C18, 100 × 1 mm, 1.7 µm, 50 °C, 0.3 mL/min, estimated dead time 0.17 min; A: water + 0.1% formic acid + 20 mM ammonium formate; B: methanol + 0.1% formic acid + 20 mM ammonium formate; gradient (min/%B) 0/0 15/100 21/100 22/0 30/0; conditions: stereoisomer not certain

SMILES | LC retention time [1] [min] | LC retention time [2] [min]
CCc1ccc(CCOc2ccc(CC3SC(=O)NC3=O)cc2)nc1 (stereo unspecified) [Pioglitazone] | 13.3 | 11.1
O=c1c(OC2OC(CO)C(O)C(O)C2O)c(-c2ccc(O)c(O)c2)oc2cc(O)cc(O)c12 (stereo unspecified) [Hyperoside] | 6.8 | 9.67
O=C(O)COCCN1CCN(C(c2ccccc2)c2ccc(Cl)cc2)CC1 (stereo unspecified) [Cetirizine] | 14.8 | 13.6
NC(=O)c1ccc(N)cc1 [4-Aminobenzamide] | 2.63 | 2.09
CCNS(=O)(=O)c1ccccc1C [N-Ethyl-o-toluenesulfonamide] | 11.6 | 11.4
CN(C1CCCCC1)C1CCCCC1 [N-Methyl-dicyclohexylamine] | 13.1 | 9.22
Clc1cccc(Cl)c1NC1=NCCN1 [Clonidine] | 10.2 | 7.02
CN(C)C(=S)SC(=S)N(C)C [Tetramethylthiuram monosulfide] | 9.63 | 9.49
CCC12CCCN3CCc4c(n(c5ccccc45)C(O)(C(=O)OC)C1)C32 (stereo unspecified) [Vincamin] | 14.6 | 9.43
Cc1cccc2sc3nncn3c12 [Tricyclazole] | 10.4 | 10.3
CCC(C)C1OC2(C=CC1C)CC1CC(CC=C(C)C(OC3CC(OC)C(OC4CC(OC)C(NC)C(C)O4)C(C)O3)C(C)C=CC=C3COC4C(O)C(C)=CC(C(=O)O1)C34O)O2 (stereo unspecified) [Emamectin B1a] | 18.6 | 17.1
COc1ccc2c(c1OC)C(=O)OC2C1c2c(cc3c(c2OC)OCO3)CCN1C (stereo unspecified) [Noscapin] | 14.8 | 9.81
O=C(O)COc1ccc(Cl)cc1Cl [2,4-Dichlorophenoxyacetic acid] | 10.6 | 12.9
CC(=O)N(C)c1ccc(N)cc1 [N-(4-Aminophenyl)-N-methyl-acetamid] | 7.24 | 5.17
CCC(C)(C)C(=O)OC1=C(c2ccc(Cl)cc2Cl)C(=O)OC12CCCCC2 [Spirodiclofen] | 18 | 17.6
CNC(=O)Nc1ccc(Cl)c(Cl)c1 [1-(3,4-Dichlorphenyl)-3-methyl-Harnstoff] | 13 | 12.8
CC=C1CC(C)C(O)(CO)C(=O)OCC2=CCN3CCC(OC1=O)C23 (stereo unspecified) [Retrorsine] | 11.6 | 7.62
CCNc1ccc2c(C)cc(=O)oc2c1 [7-(Ethylamino)-4-methylcoumarin] | 12.5 | 12.2
O=C1Cc2cc(CCN3CCN(c4nsc5ccccc45)CC3)c(Cl)cc2N1 [Ziprasidone] | 16.1 | 11.3
CC(C)(C#N)c1cc(Cn2cncn2)cc(C(C)(C)C#N)c1 [Anastrozole] | 11.5 | 11.3
CCN(CCO)CCCC(C)Nc1ccnc2cc(Cl)ccc12 (stereo unspecified) [Hydroxychloroquine] | 14.1 | 7.34

SMILES | LC retention time [1] [min] | LC retention time [2] [min]
CCc1cccc(CC)c1N(COC)C(=O)C(=O)O [Alachlor tert-oxanilic acid (OA)] | 15.9 | 15.5
COc1ccc2c(c1)[nH]c1c(C)nccc12 [Harmine] | 13.5 | 9.88
COC(C)C(O)(C(=O)OCC1=CC[N+]2([O-])CCC(O)C12)C(C)C (stereo unspecified) [Heliotrine N-oxide] | 8.96 | 8.36
CN1CCC23c4c5ccc(O)c4OC2C(O)C=CC3C1C5 (stereo unspecified) [Morphine] | 10.4 | 4.19
CNc1nc(NC(C)C)nc(SC)n1 [Desmetryn] | 13.1 | 11.7
c1ccc2sc(SN3CCOCC3)nc2c1 [2-Morpholinothiobenzothiazole] | 10 | 12.1
C=C1CC2C(CCC3(C)C(=O)CCC23)C2(C)C=CC(=O)C=C12 (stereo unspecified) [Exemestane] | 14.3 | 14
CCN(CC)c1nc(C)cc(OP(=S)(OC)OC)n1 [Pirimiphos-methyl] | 16.3 | 15.8
CN1COCN(Cc2cnc(Cl)s2)C1=O | 9.5 | 9.42
[NH3+][C@@H](Cc1cc(I)c(Oc2cc(I)c(O)c(I)c2)c(I)c1)C(=O)[O-] [L-thyroxine] | 12.9 | 14.1
Cc1onc(-c2ccccc2)c1C(=O)NC1C(=O)N2C1SC(C)(C)C2C(=O)O (stereo unspecified) [Oxacillin] | 11.6 | 12.7
CC(C)(C)NCC(O)COc1nsnc1N1CCOCC1 (stereo unspecified) [Timolol] | 13.2 | 9.08
COc1nc(C)nc(NC(=O)NS(=O)(=O)c2ccccc2OCCCl)n1 [Triasulfuron] | 9.67 | 11.5
COc1ccc(Cc2nccc3cc(OC)c(OC)cc23)cc1OC [Papaverin] | 13.3 | 9.77
CC(C)OC(=O)C(C)(C)Oc1ccc(C(=O)c2ccc(Cl)cc2)cc1 [Fenofibrate] | 17.3 | 17
COc1cc2c(c(OC)c1OC)-c1ccc(OC)c(=O)cc1C(NC(C)=O)CC2 (stereo unspecified) [Colchicine] | 11.6 | 11.4
CN=CNc1ccc(C)cc1C [N-(2,4-Dimethylphenyl)-N-methyl-formamidine] | 12.1 | 7.83
CCC(=C(c1ccc(O)cc1)c1ccc(OCCN(C)C)cc1)c1ccccc1 [4-Hydroxytamoxifen] | 17 | 14.3
CCOC(=O)C(Cl)Cc1cc(-n2nc(C)n(C(F)F)c2=O)c(F)cc1Cl (stereo unspecified) [Carfentrazone-ethyl] | 15.8 | 15.4
Cc1ccc(C(C)NC(=O)C(NC(=O)OC(C)C)C(C)C)cc1 (stereo unspecified) [Iprovalicarb] | 15.1 | 14.8
CC(C)C1(C)N=C(c2ncccc2C(=O)O)NC1=O (stereo unspecified) [Imazapyr] | 5.24 | 8.89

SMILES | LC retention time [1] [min] | LC retention time [2] [min]
CN1CCCC(n2nc(Cc3ccc(Cl)cc3)c3ccccc3c2=O)CC1 (stereo unspecified) [Azelastine] | 16.3 | 12.9
CC(CCc1ccccc1)NCC(O)c1ccc(O)c(C(N)=O)c1 (stereo unspecified) [Labetalol] | 12.8 | 10.6
CC(C)N(C(=O)SCC(Cl)=C(Cl)Cl)C(C)C [Triallate] | 17.7 | 17.3
CC=C1CC(C)C(C)(O)C(=O)OCC2=CCN3CCC(OC1=O)C23 (stereo unspecified) [Senecionine] | 12.5 | 8.65
CN1C(=O)CC(C)(c2ccccc2)C1=O (stereo unspecified) [Methsuximide] | 11.4 | 11.2
Cc1cc(=O)[nH]c(C(C)C)n1 [2-Isopropyl-6-methyl-pyrimidin-4-ol] | 8.01 | 7.61
Oc1c(Cl)cc(-c2ccc(Cl)cc2)cc1Cl [4-Hydroxy-3,4',5-trichlorobiphenyl] | 15.2 | 16.9
CN(C)CCOC(c1ccccc1)c1ccccc1 [Diphenhydramine] | 15.7 | 11.7
CCOC1C(OC)C(C)OC(OC2CC3CCC4C5CC(=O)OC(CC)CCCC(OC6CCC(N(C)C)C(C)O6)C(C)C(=O)C5=CC4C3C2)C1OC (stereo unspecified) [Spinetoram] | 19.2 | 16.2
CC=C1CC(C)C(C)(O)C(=O)OCC2=CCN(C)CCC(OC1=O)C2=O (stereo unspecified) [Senkirkine] | 10.2 | 9.47
CC(=O)C1(O)CCC2C3C=C(Cl)C4=CC(=O)C5CC5C4(C)C3CCC21C (stereo unspecified) [Cyproterone] | 14.9 | 14.6
CC(=O)OC(C)(C)C=CC(=O)C(C)(O)C1C(O)CC2(C)C3CC=C4C(C=C(O)C(=O)C4(C)C)C3(C)C(=O)CC12C (stereo unspecified) [Cucurbitacin E] | 14.7 | 14.4
CCOc1ccc(C(C)(C)COCc2cccc(Oc3ccccc3)c2)cc1 [Etofenprox] | 14.1 | 13.8
O=C(C1CCCCC1)N1CC(=O)N2CCc3ccccc3C2C1 (stereo unspecified) [Praziquantel] | 14.3 | 14
CCN1CC2(COC)C(O)CC(OC)C34C5CC6(O)C(OC)C(O)C(OC(C)=O)(C5C6OC(=O)c5ccccc5)C(C(OC)C23)C14 (stereo unspecified) [Aconitin] | 15.7 | 12.1
CCN(CCCCOC(=O)c1ccc(OC)c(OC)c1)C(C)Cc1ccc(OC)cc1 (stereo unspecified) [Mebeverine] | 17.1 | 12.1
O=C(Nc1ccccc1)c1ccccc1I [Benodanil] | 12.9 | 12.7
C#CC1(O)CCC2C3CCC4=CC(=O)CCC4C3CCC21C (stereo unspecified) [Norethindrone] | 14.2 | 13.9
COc1cc(OC)nc(N)n1 [2-Amino-4,6-dimethoxypyrimidine] | 8.74 | 7.19
Nc1ccc(Cc2ccc(N)cc2)cc1 [4,4'-Methylenedianiline] | 10.7 | 5.44
CCC1OC(=O)CC(O)C(C)C(OC2OC(C)C(OC3CC(C)(O)C(O)C(C)O3)C(N(C)C)C2O)C(CC=O)CC(C)C(=O)C=CC(C)=CC1COC1OC(C)C(O)C(OC)C1OC (stereo unspecified) [Tylosin] | 15.5 | 13.1
